Where “and” joins values, the source holds several entries; their conditions need not be identical. Equal values may be shown once.
How the values were obtained:
[1] = In vitro blood-brain barrier permeability assay (BBB kit RBT-24H); assay type: in vitro ADME, rat
Experimental: Therefore, we tested BBB transparency in vitro using the BBB kit RBT-24H (PharmaCo-Cell)[35]. […] Blood-brain barrier permeability assay The blood-brain barrier (BBB) transparency of TH analogs was assessed in vitro using RBT-24H (PharmaCo-Cell)[5] according to the manufacturer 's protocol. […] After 30 min, the assay buffer in the wells mimicking the abluminal side was collected, and the concentration of the compounds was measured using liquid chromatography-mass spectrometry (LC-MS). […] These tips were preconditioned with 20 μL of acetonitrile and 20 μL of 0.1% TFA in purified water. 100 μL of the samples were loaded onto the preconditioned tips, washed with 200 μL of DW, and then eluted with 10 μL of acetonitrile. Triazine (1% vol/vol) was added to the eluent as an internal standard. […] 3 μm; Imtakt, Kyoto, Japan). All the experiments were performed using an Ultimate 3000 UHPLC system coupled with a Q Exactive Plus Orbitrap mass spectrometer (Thermo Fisher Scientific). […] Data were shown as mean ± standard deviation (n=3).

[2] = system: THR-regulated genes and lipid metabolism-related genes in the liver
[3] = system: high-fat diet (HFD)-induced obesity model mice; experiment: Weight of epididymal adipose tissue (visceral fat) in HFD mice; assay type: in vivo, C57BL/6J mice; details: for Fig. 3b (weight of epididymal adipose tissue), group mean (Mean 2): n=10; for Fig. 3b (weight of epididymal adipose tissue), group mean (Mean 2) / Fig. 3b (weight of epididymal adipose tissue), Mean Diff. ND vs. treatment (Tukey) / Fig. 3b (weight of epididymal adipose tissue), Mean Diff. Vehicle vs. treatment (Tukey) / Epididymal adipose weight, individual mice (Fig. 3b): in mg (unit assumed); for Fig. 3b (weight of epididymal adipose tissue), Mean Diff. ND vs. treatment (Tukey): ND minus treated; for Fig. 3b (weight of epididymal adipose tissue), Mean Diff. Vehicle vs. treatment (Tukey): Vehicle minus treated
Experimental: (§1) Epididymal adipose tissue was weighed.
(§2) Fig. 3 Effects of intraperitoneal injection of TH analogs on body weight and deposition of visceral fat. […] After three weeks of injection, body weight (a), and weight of the epididymal adipose tissue (b) were measured.

[4] = system: high-fat diet (HFD)-induced obesity model mice; experiment: Body weight of high-fat diet-induced obesity model mice; assay type: in vivo, C57BL/6J mice; set-up: Body weight, Mean Diff. ND vs. treated: unit not given here; details: for Body weight, 95.00% CI of diff. ND vs. treated / Body weight, Mean Diff. ND vs. treated: ND group as comparator; for Body weight, 95.00% CI of diff. ND vs. treated / Body weight, Mean Diff. ND vs. treated / Body weight, 95.00% CI of diff. Vehicle vs. treated / Body weight, Mean Diff. Vehicle vs. treated: Tukey's multiple comparisons test; for Body weight, Mean Diff. Vehicle vs. treated / Body weight, group mean (Fig. 3a) / Body weight, individual mice (Fig. 3a): in g (unit assumed); for Body weight, group mean (Fig. 3a): n 10
Experimental: The injection was given 6 h after light on. Food consumption and body weights were measured weekly. Food and water were provided to the animals ad libitum. The animals were treated according to the guidelines of Nagoya University, and all experimental procedures were approved by the Animal Experiment Committee of Nagoya University (A210715-003).
as §1, §2

[5] = system: high-fat diet (HFD)-induced obesity model mice; experiment: Serum lipid analysis (total cholesterol, triglycerides) in HFD mice; assay type: in vivo, C57BL/6J mice; set-up: Serum TC (Fig. 4a), individual mouse values / Serum TG (Fig. 4b), individual mouse values / Serum TC (Fig. 4a), Mean Diff. ND vs. treatment (Tukey) / Serum TC (Fig. 4a), Mean Diff. Vehicle vs. treatment (Tukey) / Serum TC (Fig. 4a), group mean (Mean 2) / Mean Diff., ND vs. treated (Fig. 4b) / Mean Diff., Vehicle vs. treated (Fig. 4b) / Mean (Fig. 4b): unit not given here; details: for Serum TC (Fig. 4a), group mean (Mean 2) / Mean (Fig. 4b): n=10; for Serum TC (Fig. 4a), Mean Diff. ND vs. treatment (Tukey): ND minus treated; for Serum TC (Fig. 4a), Mean Diff. Vehicle vs. treatment (Tukey): Vehicle minus treated; for Mean Diff., ND vs. treated (Fig. 4b) / Mean Diff., Vehicle vs. treated (Fig. 4b): Tukey's multiple comparisons test; for Mean (Fig. 4b): group mean
Experimental: Fig. 4 Effects of TH analogs on the accumulation of lipids in mice. […] After 3 weeks of injection, serum and liver tissues were collected, and the amount of serum cholesterol (a), serum triglycerides (b), liver cholesterol (c), liver triglycerides (d), and liver total lipids (e) were measured.

THRβ = details: cited from earlier work
[6] = HFD mice, 1 μmol/kg day, RT-qPCR, reference gene Rps18
[7] = liver gene expression, 1µmol dose group vs. Vehicle
[8] = HFD mice, i.p., dose not given (0.1 or 1 µmol/kg day), 3 weeks

Compound: Cn1c(=O)c2c(ncn2C)n(C)c1=O [Caffeine]
- Abluminal concentration ([1]; 10 µM on luminal side, 30 min, mean ± standard deviation (n=3)): 0.504 ± 0.0551 µM
- Papp at 30 min, 10 µM ([1]; rat, 10 μM on luminal side, read-out: apparent permeability (Papp)): 76.4 ± 8.35 ×10⁻⁶ cm/s

Compound: N[C@@H](Cc1cc(I)c(Oc2ccc(O)c(I)c2)c(I)c1)C(=O)O [T3, triiodothyronine]
- Dio1 expression in the liver, individual animal values ([2]; 1µmol, one value per animal): 3.359 and 3.177 and 2.594 and 3.891 and 4.465 and 3.761 and 2.009 and 5.092 and 4.047 and 3.355
- Ldlr expression in the liver, individual animal values ([2]; 1µmol, one value per animal): 0.07802 and 0.2909 and 0.1661 and 1.188 and 1.197 and 0.8436 and 2.271 and 0.5624 and 0.08829 and 0.1717
- Me1 expression in the liver, individual animal values ([2]; 1µmol, one value per animal): 1.618 and 1.709 and 1.627 and 3.524 and 2.735 and 3.173 and 4.935 and 5.075 and 3.984 and 2.564
- Pnpla2 expression in the liver, individual animal values ([2]; 1µmol, one value per animal): 0.3078 and 2.165 and 2.21 and 1.997 and 2.671 and 3.066 and 2.607 and 3.3336 and 0.6308 and 1.108
- Srebp1c expression in the liver, individual animal values ([2]; 1µmol, one value per animal): 0.06015 and 0.2255 and 0.1838 and 0.1704 and 0.1322 and 0.09864 and 0.3225 and 0.5342 and 0.08549 and 0.1455
- Thrsp expression in the liver, individual animal values ([2]; 1µmol, one value per animal): 1.539 and 1.364 and 0.6114 and 1.153 and 1.565 and 1.274 and 1.191 and 0.8905 and 1.332 and 1.012
- liver expression of Dio1 vs vehicle [2, 6]: significantly upregulated
- liver expression of Ldlr vs vehicle [2, 6]: not significantly different
- liver expression of Me1 vs vehicle [2, 6]: significantly upregulated
- liver expression of Srebp1c vs vehicle [2, 6]: significantly lower
- liver expression of Thrsp vs vehicle [2, 6]: no significant difference
- Pnpla2, Dunn's multiple comparisons test, Mean rank diff. (Vehicle vs. compound) [2, 7]: -12.5
- Srebp1c, Dunn's multiple comparisons test, Mean rank diff. (Vehicle vs. compound) [2, 7]: 17.87
- Pnpla2, Mean rank of treatment group (Mean rank 2) ([2]; liver gene expression, 1µmol dose group, Vehicle mean rank 8): 20.5
- Srebp1c, Mean rank of treatment group (Mean rank 2) ([2]; liver gene expression, 1µmol dose group, Vehicle mean rank […]): 15.8
- Fig. 3b (weight of epididymal adipose tissue), group mean (Mean 2) ([3]; 0.1 µmol, HFD mice): 1763
- Fig. 3b (weight of epididymal adipose tissue), Mean Diff. ND vs. treatment (Tukey) ([3]; 0.1 µmol): -1079
- Fig. 3b (weight of epididymal adipose tissue), Mean Diff. Vehicle vs. treatment (Tukey) ([3]; 0.1 µmol): 1095
- Fig. 3b (weight of epididymal adipose tissue), group mean (Mean 2) ([3]; 1 µmol, HFD mice): 1015
- Fig. 3b (weight of epididymal adipose tissue), Mean Diff. ND vs. treatment (Tukey) ([3]; 1 µmol): -331.6
- Fig. 3b (weight of epididymal adipose tissue), Mean Diff. Vehicle vs. treatment (Tukey) ([3]; 1 µmol): 1843
- Epididymal adipose weight, individual mice (Fig. 3b) ([3]; HFD mice, 0.1 µmol dose group): 1857.6 and 1829.3 and 1453.2 and 1516.6 and 740.6 and 1685.1 and 1862.2 and 1976.4 and 2365.6 and 2339.7
- Epididymal adipose weight, individual mice (Fig. 3b) ([3]; HFD mice, 1 µmol dose group): 781.7 and 1090.4 and 983.4 and 966.1 and 975.7 and 1007.4 and 1167.4 and 1184.7 and 1023.2 and 969.5
- weight of the epididymal adipose tissue vs vehicle [3, 8]: decreased significantly
- Body weight, 95.00% CI of diff. ND vs. treated ([4]; 0.1 µmol dose group): -15.17 to -6.458
- Body weight, Mean Diff. ND vs. treated ([4]; 0.1 µmol dose group): -10.81
- Body weight, 95.00% CI of diff. Vehicle vs. treated ([4]; 0.1 µmol dose group): -0.6376 to 7.800
- Body weight, Mean Diff. Vehicle vs. treated ([4]; 0.1 µmol dose group): 3.581
- Body weight, 95.00% CI of diff. ND vs. treated ([4]; 1 µmol dose group): -10.58 to -1.870
- Body weight, Mean Diff. ND vs. treated ([4]; 1 µmol dose group): -6.225
- Body weight, 95.00% CI of diff. Vehicle vs. treated ([4]; 1 µmol dose group): 3.950 to 12.39
- Body weight, Mean Diff. Vehicle vs. treated ([4]; 1 µmol dose group): 8.169
- Body weight, group mean (Fig. 3a) ([4]; HFD mice, 0.1 µmol dose group): 39.33
- Body weight, individual mice (Fig. 3a) ([4]; HFD mice, 0.1 µmol dose group): 37.99 and 36.19 and 32.32 and 43.27 and 39.51 and 44.21 and 39.97 and 39.21 and 40.58 and 40.07
- Body weight, group mean (Fig. 3a) ([4]; HFD mice, 1 µmol dose group): 34.74
- Body weight, individual mice (Fig. 3a) ([4]; HFD mice, 1 µmol dose group): 29.82 and 33.07 and 30.29 and 38.87 and 37.72 and 35.76 and 37.12 and 36.01 and 34.61 and 34.17
- body weight vs vehicle (in words) ([4]; HFD mice, i.p. 0.1 µmol/kg day, 3 weeks): did not significantly reduce body weight
- decrease of body weight compared to vehicle ([4]; HFD mice, i.p. 1 µmol/kg day, 3 weeks): ~ 20%
- Serum TC (Fig. 4a), individual mouse values ([5]; 0.1 µmol, HFD mice): 158.333 and 124.25 and 113.833 and 130.625 and 129.792 and 168.458 and 110 and 105.208 and 104.375 and 153.458
- Serum TG (Fig. 4b), individual mouse values ([5]; 0.1 µmol, HFD mice): 79.667 and 70.5 and 70.583 and 116.333 and 98 and 97.167 and 90.5 and 123.833 and 87.167 and 118.833
- Serum TC (Fig. 4a), group mean (Mean 2) ([5]; 0.1 µmol, HFD mice): 129.8
- Serum TC (Fig. 4a), Mean Diff. ND vs. treatment (Tukey) ([5]; 0.1 µmol): 49.59
- Serum TC (Fig. 4a), Mean Diff. Vehicle vs. treatment (Tukey) ([5]; 0.1 µmol): 120.2
- Serum TC (Fig. 4a), individual mouse values ([5]; 1 µmol, HFD mice): 78.333 and 92.5833 and 95.917 and 94.792 and 93.958 and 110.125 and 81.667 and 92.708 and 91.875 and 83.875
- Serum TG (Fig. 4b), individual mouse values ([5]; 1 µmol, HFD mice): 109.75 and 118.917 and 137.25 and 189.75 and 144.75 and 162.25 and 110.583 and 122.25 and 108.917 and 100.583
- Serum TC (Fig. 4a), group mean (Mean 2) ([5]; 1 µmol, HFD mice): 91.58
- Serum TC (Fig. 4a), Mean Diff. ND vs. treatment (Tukey) ([5]; 1 µmol): 87.84
- Serum TC (Fig. 4a), Mean Diff. Vehicle vs. treatment (Tukey) ([5]; 1 µmol): 158.5
- Mean Diff., ND vs. treated (Fig. 4b) ([5]; ND minus 0.1 µmol group): 51.51
- Mean Diff., ND vs. treated (Fig. 4b) ([5]; ND minus 1 µmol group): 16.27
- Mean Diff., Vehicle vs. treated (Fig. 4b) ([5]; Vehicle minus 0.1 µmol group): 20.52
- Mean Diff., Vehicle vs. treated (Fig. 4b) ([5]; Vehicle minus 1 µmol group): -14.72
- Mean (Fig. 4b) ([5]; 0.1 µmol, HFD mice): 95.26
- Mean (Fig. 4b) ([5]; 1 µmol, HFD mice): 130.5
- serum triglyceride level vs vehicle [5, 8]: no significant difference

Compound: Cc1cc(OCC(=O)O)cc(C)c1Cc1ccc(O)c(Cc2ccccc2)c1 [GC-24]
- selectivity for THRβ against THRα compared with GC-1 (THRβ): ten-fold greater selectivity

From article PMC11303563 (Communications Medicine, 2024)
